# Reference: patent US10513521B2, “Compositions and methods for inhibiting BMP” (The Brigham and Women's Hospital, Inc., priority 2014, dated 2019)
# Several values for one entry are separate records, joined by “and”; a condition that tells them apart may be missing. Equal values may be shown once.
# Experiments:
# ALK2 [1] = molecular target: T1, ALK2 (Mus musculus, UniProt P37172); experiment: HTRF pSMAD1 cell-based ALK2 assay (C2C12 cells, BMP6 as agonist)
# T1 construct: The C2C12 cell line was selected for the measurement of ALK2 activity using BMP6 as the agonist; host or cells: C2C12
# T1 sequence (P37172 21-509): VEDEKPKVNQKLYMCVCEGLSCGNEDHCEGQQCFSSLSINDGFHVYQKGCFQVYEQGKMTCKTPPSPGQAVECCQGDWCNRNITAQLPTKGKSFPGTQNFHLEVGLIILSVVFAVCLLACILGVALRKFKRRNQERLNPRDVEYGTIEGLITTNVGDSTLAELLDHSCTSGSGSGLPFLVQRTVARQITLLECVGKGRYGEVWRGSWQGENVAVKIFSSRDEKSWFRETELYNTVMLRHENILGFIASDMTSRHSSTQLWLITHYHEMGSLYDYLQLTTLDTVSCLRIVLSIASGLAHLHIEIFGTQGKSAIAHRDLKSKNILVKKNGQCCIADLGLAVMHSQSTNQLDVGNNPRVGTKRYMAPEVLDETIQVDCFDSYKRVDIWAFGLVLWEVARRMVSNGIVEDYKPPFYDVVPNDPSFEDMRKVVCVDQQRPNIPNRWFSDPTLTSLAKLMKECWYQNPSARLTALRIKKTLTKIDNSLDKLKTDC
# How it was run: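 Phospho-SMAD1 HTRF readout, detection incubated overnight at room temperature. Before that: starved cells in 0.1% FBS for 4 h, 30 min compound pretreatment, then 30 min agonist, BMP6 on C2C12 or BMP9 on BAOEC.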
# BMP4 = BMP4 HTRF assay; format: cell-based
# ALK1 = ALK1 (Homo sapiens, UniProt P37023); experiment: TR-FRET enzymatic ALK kinase assay, ALK1
# Chain of ALK1 (P37023 22-503): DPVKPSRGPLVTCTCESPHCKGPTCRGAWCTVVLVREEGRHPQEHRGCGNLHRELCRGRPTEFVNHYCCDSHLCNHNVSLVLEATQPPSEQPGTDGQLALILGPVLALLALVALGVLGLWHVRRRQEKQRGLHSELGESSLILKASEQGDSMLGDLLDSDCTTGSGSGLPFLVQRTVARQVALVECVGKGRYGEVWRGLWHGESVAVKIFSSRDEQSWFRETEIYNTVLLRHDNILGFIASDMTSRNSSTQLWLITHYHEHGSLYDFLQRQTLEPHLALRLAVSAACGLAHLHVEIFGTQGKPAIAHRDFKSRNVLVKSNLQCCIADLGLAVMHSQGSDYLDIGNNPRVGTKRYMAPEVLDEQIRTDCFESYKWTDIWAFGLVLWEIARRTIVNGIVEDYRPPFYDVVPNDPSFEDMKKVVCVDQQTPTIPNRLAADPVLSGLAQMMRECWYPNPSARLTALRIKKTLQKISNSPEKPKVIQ
# Experimental: (§1) Briefly, the ALKs enzymatic assay was initiated by dispense 2.5 μl enzyme in 1× kinase reaction buffer. The assay plate was then added with compounds followed by incubation at room temperature for 10 minutes. Then 2.5 μl/well substrate was added.
# ALK5 = molecular target: T2, ALK5 (Homo sapiens, UniProt P36897); experiment: TR-FRET enzymatic ALK kinase assay, ALK5
# T2 sequence (P36897 34-503): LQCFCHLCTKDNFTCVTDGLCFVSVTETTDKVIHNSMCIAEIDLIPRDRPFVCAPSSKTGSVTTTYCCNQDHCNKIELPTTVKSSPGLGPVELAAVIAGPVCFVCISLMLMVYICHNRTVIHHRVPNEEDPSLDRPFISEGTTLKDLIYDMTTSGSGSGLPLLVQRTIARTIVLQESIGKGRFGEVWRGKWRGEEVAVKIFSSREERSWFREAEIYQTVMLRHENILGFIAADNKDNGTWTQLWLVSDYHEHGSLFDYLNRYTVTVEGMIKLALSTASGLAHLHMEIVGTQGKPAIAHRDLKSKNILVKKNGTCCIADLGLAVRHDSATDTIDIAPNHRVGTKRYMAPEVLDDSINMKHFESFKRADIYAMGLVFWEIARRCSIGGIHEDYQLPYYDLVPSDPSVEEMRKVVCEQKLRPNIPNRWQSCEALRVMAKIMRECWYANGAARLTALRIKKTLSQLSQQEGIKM
# Experimental: Six ALK kinase enzyme assays were developed for determination of compound activities on ALK1, ALK2, ALK3, ALK4, ALK5 and ALK6.
# as §1
# ALK2 [2] = molecular target: T1, ALK2; experiment: In-cell Western ALK2 assay (C2C12 cells, BMP6 as agonist); format: cell-based; conditions: read-out: BMP6 ICW
# Text: 3. In-Cell Western ALK1 and ALK2 Assays in 384-Well Plate Format.
# We also optimized cell-based In-cell Western assays for measurements of ALK1 and ALK2 activities that were used to determine compound activities in these two kinases. The cell lines and agonists used were same as described in above cell-based HTRF ALK1 and ALK2 assays. The initial cell plating and compound treatment were also same. The main difference is the detection of phosphorylation status of SMAD1. In t-cell Western assay, the cells were fixed and phosphorylation status of SMAD1 was detected by the ELISA instead of using the HTRF assay kit in above assay.
# HyClone Fetal Bovine Serum was obtained from GE healthcare life sciences (Logan, Utah). BMP6 and BMP9 were purchased from R&D System (R&D). Anti-P-SMAD 1/5/8 rabbit mAb and anti-rabbit IgG, HRP-Linked antibody were purchased from Cell Signaling Technology (Danvers, Mass.). BioFX Chemiluminescent Ultra-Sensitive HRP Microwell Substrate ECL Reagent was obtained from SurModics (Edina, Minn.). The compound plates and the white solid MB assay plates were from Greiner Bio-one (Monroe, N.C.).
# Similarly as described in above HTRF cell-based assay, this assay was performed in 384 well plate format. […] Pre-starved cells were then plated in 384 well plate in the starvation medium (containing in 0.1% FBS). After 4 hours, compound dilutions in DMSO were added to the assay plate and incubated for 30 minutes. The assay plate was then added with BMP6 for C2C12 cells or BMP9 for BAOEC cells and incubated for 30 minutes.
# The cells were washed in the plate washer with PBS and blocked with 2% BSA in PBS for 1 h at room temperature on the rotator. After removing the blocking reagent, the cells were incubated with the anti-p-SMAD1 antibody in 2% BSA in PBS for overnight at 4° C. on rotator. The cells were washed with PBS in the plate washer and incubated with HRP conjugated second antibody in 2% BSA in PBS for 1 hour at room temperature. After a cell wash with PBS, ECL detection reagent was added and the plate was read in the luminesce mode in the ViewLux plate reader.
# [3] = HTRF assay, BMP6 as agonist, C2C12 cells, read-out: BMP6 HTRF
# [4] = cell-based assay, BMP6, read-out: Cell IC50 BMP6
IC50 (ALK2 [1]; [3]),IC50 (ALK2 [1]; [4]),IC50 (BMP4),IC50 (ALK1),IC50 (ALK5),IC50 (ALK2 [2]),SMILES
230 nM,11 nM,100 nM,100 nM,> 10000 nM,,"C[S+](=O)([O-])c1cccc(-c2cnn3cc(-c4ccc(OC5(CN6CCCCC6)COC5)cc4)cnc23)c1 [Compound 93, 3-(3-(methylsulfonyl)phenyl)-6-(4-((3-(piperidin-1-ylmethyl)oxetan-3-yl)oxy)phenyl)pyrazolo[1,5-a]pyrimidine]"
260 nM,18 nM,130 nM,29 nM,> 10000 nM,,"C[C@@H]1CNC[C@H](C)N1c1ccc(-c2cnc3c(-c4cccc(C(C)(C)O)c4)cnn3c2)cc1 [Compound 103, 2-(3-(6-(4-((2R,6S)-2,6-dimethylpiperazin-1-yl)phenyl)pyrazolo[1,5-a]pyrimidin-3-yl)phenyl)propan-2-ol]"
19 nM,4 nM,140 nM,5 nM,9290 nM,,"C[C@@H]1CNC[C@H](C)N1c1ccc(-c2cnc3c(-c4cccc5c(C(N)=O)cccc45)cnn3c2)cc1 [Compound 10, 5-(6-(4-((2S,6R)-2,6-dimethylpiperazin-1-yl)phenyl)pyrazolo[1,5-a]pyrimidin-3-yl)-1-naphthamide]"
350 nM,< 1 nM,9 nM,150 nM,> 10000 nM,,"C[S+](=O)([O-])c1cccc(-c2cnn3cc(-c4ccc(OC5(Cn6ccnc6)COC5)cc4)cnc23)c1 [Compound 105, 6-(4-((3-((1H-imidazol-1-yl)methyl)oxetan-3-yl)oxy)phenyl)-3-(3-(methylsulfonyl)phenyl)pyrazolo[1,5-a]pyrimidine]"
308 nM,1 nM,180 nM,30 nM,> 10000 nM,,"C[C@@H]1CNC[C@H](C)N1c1ccc(-c2cnc3c(-c4cccc(S(C)(=O)=O)c4)cnn3c2)cc1 [Compound 82, 6-(4-((2R,6S)-2,6-dimethylpiperazin-1-yl)phenyl)-3-(3-(methylsulfonyl)phenyl)pyrazolo[1,5-a]pyrimidine]"
,< 1 nM,,120 nM,> 10000 nM,180 nM and 170 nM,"C[C@@H]1CNC[C@H](C)N1c1ccc(-c2cnc3c(-c4cccc([S+](=O)([O-])C5CC5)c4)cnn3c2)cc1 [Compound 111, 3-(3-(cyclopropylsulfonyl)phenyl)-6-(4-((2R,6S)-2,6-dimethylpiperazin-1-yl)phenyl)pyrazolo[1,5-a]pyrimidine]"
170 nM,1.3 nM,230 nM,34 nM,> 10000 nM,96 nM and 70 nM,"CC[S+](=O)([O-])c1cccc(-c2cnn3cc(-c4ccc(N5[C@H](C)CNC[C@@H]5C)cc4)cnc23)c1 [Compound 104, 6-(4-((2R,6S)-2,6-dimethylpiperazin-1-yl)phenyl)-3-(3-(ethylsulfonyl)phenyl)pyrazolo[1,5-a]pyrimidine]"
